{"source": "patent US4308256A", "about": "“Method of inducing analgesia” (American Home Products Corporation, priority 1980, dated 1981)", "key": {"[1]": {"molecular_target": "T1, bleomycin hydrolase (Homo sapiens, UniProt Q13867)", "T1 sequence (Q13867 1-455)": "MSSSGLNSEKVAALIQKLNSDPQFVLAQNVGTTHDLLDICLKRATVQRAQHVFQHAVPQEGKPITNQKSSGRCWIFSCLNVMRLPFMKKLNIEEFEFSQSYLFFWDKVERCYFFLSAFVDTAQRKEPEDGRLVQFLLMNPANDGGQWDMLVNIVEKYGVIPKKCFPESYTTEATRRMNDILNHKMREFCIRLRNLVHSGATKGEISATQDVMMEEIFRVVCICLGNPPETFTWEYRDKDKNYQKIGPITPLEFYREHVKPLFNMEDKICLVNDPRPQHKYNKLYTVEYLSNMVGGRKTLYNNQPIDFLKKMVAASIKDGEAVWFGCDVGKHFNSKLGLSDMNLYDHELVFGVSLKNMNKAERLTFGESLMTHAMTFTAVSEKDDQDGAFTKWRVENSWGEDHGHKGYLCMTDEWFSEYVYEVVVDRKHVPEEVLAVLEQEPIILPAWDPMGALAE", "details": "cited from earlier work"}, "[2]": {"system": "male Charles River rats", "test": "D'Amour-Smith rat tail-flick procedure (radiant heat, 8 second cut-off), intraventricular injection", "assay_type": "in vivo", "description": "Intraventricular cannulae, made of 27-gauge stainless steel tubing, are implanted in 300-400 g. male Charles River rats under pentobarbital anesthesia. After a recovery period of at least one week, the rats are restrained in a wire-mesh cylindrical chamber so that the tip of the tail can be positioned at the focal point of a radiant heat source. After an acclimatistation period of 5 minutes, the lamp is turned on and an electric clock activated. Movement of the tip of the tail exposes a photocell to the lamp, which turns off the thermal stimulus and stops the clock. If a rat fails to move its tail within 8 seconds, the heat is automatically turned off to prevent blistering. The intensity of the lamp is adjusted in each case to produce at least three baseline tail-flick latencies of 2.5-4.5 seconds. Tests are initially made every 2 minutes, then every 5 minutes and finally every 15 minutes.\nInitially, using the above outlined procedure, the effects of intraventricularly administered leucine-enkephalin are tested in rats according to the above procedure.\nThe rat tail flick procedure is repeated, first by the simultaneous intraventricular injection of both leucine-enkephalin and bestatin and then by the initial injection of bestatin followed one hour later by the injection of leucine-enkephalin.\nThe above procedure is repeated again, however, the bestatin is administered first and then one hour later the leucine-enkephalin is administered.\nThe effects of bestatin alone are tested in rats according to the rat tail flick procedure."}}, "data": [{"smiles": "CC(C)C[C@H](NC(=O)[C@@H](O)[C@H](N)Cc1ccccc1)C(=O)O", "note": "[bestatin, [(2S,3R)-3-amino-2-hydroxy-4-phenylbutanoyl]-L-leucine]", "values": [{"measurement": "Inhibition of bleomycin hydrolase", "setting": "[1]", "result": "inhibitors"}, {"measurement": "Tail-flick latency", "setting": "[2]; 200 μg bestatin alone into lateral ventricle, Rat 1, 2 min", "result": 4.92, "unit": "s"}, {"measurement": "Tail-flick latency", "setting": "[2]; 200 μg bestatin alone into lateral ventricle, Rat 1, 4 min", "result": 7.36, "unit": "s"}, {"measurement": "Tail-flick latency", "setting": "[2]; 200 μg bestatin into lateral ventricle, 200 μg leucine-enkephalin one hour later, 1 rat, 2 min after leucine-enkephalin", "result": 8.00, "unit": "s"}, {"measurement": "Tail-flick latency", "setting": "[2]; 200 μg bestatin into lateral ventricle, 200 μg leucine-enkephalin one hour later, 1 rat, 4 min after leucine-enkephalin", "result": 8.00, "unit": "s"}, {"measurement": "Tail-flick latency", "setting": "[2]; 200 μg bestatin into lateral ventricle, 200 μg leucine-enkephalin one hour later, 1 rat, 6 min after leucine-enkephalin", "result": 8.00, "unit": "s"}, {"measurement": "Tail-flick latency", "setting": "[2]; 200 μg bestatin into lateral ventricle, 200 μg leucine-enkephalin one hour later, 1 rat, 8 min after leucine-enkephalin", "result": 8.00, "unit": "s"}, {"measurement": "Tail-flick latency", "setting": "[2]; 200 μg bestatin into lateral ventricle, 200 μg leucine-enkephalin one hour later, 1 rat, 10 min after leucine-enkephalin", "result": 8.00, "unit": "s"}, {"measurement": "Tail-flick latency", "setting": "[2]; 200 μg bestatin into lateral ventricle, 200 μg leucine-enkephalin one hour later, 1 rat, 12 min after leucine-enkephalin", "result": 8.00, "unit": "s"}, {"measurement": "Tail-flick latency", "setting": "[2]; 200 μg bestatin into lateral ventricle, 200 μg leucine-enkephalin one hour later, 1 rat, 14 min after leucine-enkephalin", "result": 8.00, "unit": "s"}, {"measurement": "Tail-flick latency", "setting": "[2]; 200 μg bestatin into lateral ventricle, 200 μg leucine-enkephalin one hour later, 1 rat, 19 min after leucine-enkephalin", "result": 8.00, "unit": "s"}, {"measurement": "Tail-flick latency", "setting": "[2]; 200 μg bestatin into lateral ventricle, 200 μg leucine-enkephalin one hour later, 1 rat, 24 min after leucine-enkephalin", "result": 8.00, "unit": "s"}, {"measurement": "Tail-flick latency", "setting": "[2]; 200 μg bestatin into lateral ventricle, 200 μg leucine-enkephalin one hour later, 1 rat, 29 min after leucine-enkephalin", "result": 8.00, "unit": "s"}, {"measurement": "Tail-flick latency", "setting": "[2]; 200 μg bestatin into lateral ventricle, 200 μg leucine-enkephalin one hour later, 1 rat, 34 min after leucine-enkephalin", "result": 8.00, "unit": "s"}, {"measurement": "Tail-flick latency", "setting": "[2]; 200 μg bestatin into lateral ventricle, 200 μg leucine-enkephalin one hour later, 1 rat, 53 min after leucine-enkephalin", "result": 8.00, "unit": "s"}, {"measurement": "Tail-flick latency", "setting": "[2]; 200 μg bestatin into lateral ventricle, 200 μg leucine-enkephalin one hour later, 1 rat, 58 min after leucine-enkephalin", "result": 8.00, "unit": "s"}, {"measurement": "Tail-flick latency", "setting": "[2]; 200 μg bestatin into lateral ventricle, 200 μg leucine-enkephalin one hour later, 1 rat, 63 min after leucine-enkephalin", "result": 6.07, "unit": "s"}, {"measurement": "Tail-flick latency", "setting": "[2]; 200 μg bestatin into lateral ventricle, 200 μg leucine-enkephalin one hour later, 1 rat, 68 min after leucine-enkephalin", "result": 2.62, "unit": "s"}, {"measurement": "Tail-flick latency", "setting": "[2]; 200 μg leucine-enkephalin + 200 μg bestatin injected together into lateral ventricle, 1 rat, 2 min", "result": 4.21, "unit": "s"}, {"measurement": "Tail-flick latency", "setting": "[2]; 200 μg leucine-enkephalin + 200 μg bestatin injected together into lateral ventricle, 1 rat, 4 min", "result": 5.75, "unit": "s"}, {"measurement": "Tail-flick latency", "setting": "[2]; 200 μg leucine-enkephalin + 200 μg bestatin injected together into lateral ventricle, 1 rat, 8 min", "result": 8.00, "unit": "s"}, {"measurement": "Tail-flick latency", "setting": "[2]; 200 μg leucine-enkephalin + 200 μg bestatin injected together into lateral ventricle, 1 rat, 10 min", "result": 8.00, "unit": "s"}, {"measurement": "Tail-flick latency", "setting": "[2]; 200 μg leucine-enkephalin + 200 μg bestatin injected together into lateral ventricle, 1 rat, 12 min", "result": 8.00, "unit": "s"}, {"measurement": "Tail-flick latency", "setting": "[2]; 200 μg leucine-enkephalin + 200 μg bestatin injected together into lateral ventricle, 1 rat, 14 min", "result": 8.00, "unit": "s"}, {"measurement": "Tail-flick latency", "setting": "[2]; 200 μg leucine-enkephalin + 200 μg bestatin injected together into lateral ventricle, 1 rat, 19 min", "result": 8.00, "unit": "s"}, {"measurement": "Tail-flick latency", "setting": "[2]; 200 μg leucine-enkephalin + 200 μg bestatin injected together into lateral ventricle, 1 rat, 24 min", "result": 8.00, "unit": "s"}, {"measurement": "Tail-flick latency", "setting": "[2]; 200 μg leucine-enkephalin + 200 μg bestatin injected together into lateral ventricle, 1 rat, 29 min", "result": 8.00, "unit": "s"}, {"measurement": "Tail-flick latency", "setting": "[2]; 200 μg leucine-enkephalin + 200 μg bestatin injected together into lateral ventricle, 1 rat, 34 min", "result": 8.00, "unit": "s"}, {"measurement": "Tail-flick latency", "setting": "[2]; 200 μg leucine-enkephalin + 200 μg bestatin injected together into lateral ventricle, 1 rat, 39 min", "result": 8.00, "unit": "s"}, {"measurement": "Tail-flick latency", "setting": "[2]; 200 μg leucine-enkephalin + 200 μg bestatin injected together into lateral ventricle, 1 rat, 53 min", "result": 8.00, "unit": "s"}, {"measurement": "Tail-flick latency", "setting": "[2]; 200 μg leucine-enkephalin + 200 μg bestatin injected together into lateral ventricle, 1 rat, 58 min", "result": 8.00, "unit": "s"}, {"measurement": "Tail-flick latency", "setting": "[2]; 200 μg leucine-enkephalin + 200 μg bestatin injected together into lateral ventricle, 1 rat, 63 min", "result": 4.65, "unit": "s"}, {"measurement": "Tail-flick latency", "setting": "[2]; 200 μg leucine-enkephalin + 200 μg bestatin injected together into lateral ventricle, 1 rat, 68 min", "result": 8.00, "unit": "s"}, {"measurement": "Tail-flick latency", "setting": "[2]; 200 μg leucine-enkephalin + 200 μg bestatin injected together into lateral ventricle, 1 rat, 73 min", "result": 4.95, "unit": "s"}, {"measurement": "Tail-flick latency", "setting": "[2]; 200 μg leucine-enkephalin + 200 μg bestatin injected together into lateral ventricle, 1 rat, 78 min", "result": 2.10, "unit": "s"}, {"measurement": "Analgesia induced by bestatin alone", "setting": "[2]; 200 μg level, lateral ventricle, rat", "result": "does not appear to induce any clearcut analgesia"}, {"measurement": "Tail-flick latency", "setting": "[2]; 400 μg bestatin alone into lateral ventricle, Rat 1, 210 min", "result": 8.00, "unit": "s"}, {"measurement": "Tail-flick latency", "setting": "[2]; 400 μg bestatin alone into lateral ventricle, Rat 1, 225 min", "result": 8.00, "unit": "s"}, {"measurement": "Tail-flick latency", "setting": "[2]; 400 μg bestatin alone into lateral ventricle, Rat 1, 240 min", "result": 8.00, "unit": "s"}, {"measurement": "Tail-flick latency", "setting": "[2]; 400 μg bestatin alone into lateral ventricle, Rat 1, 255 min", "result": 4.71, "unit": "s"}, {"measurement": "Tail-flick latency", "setting": "[2]; 400 μg bestatin alone into lateral ventricle, Rat 2, 2 min", "result": 2.16, "unit": "s"}, {"measurement": "Tail-flick latency", "setting": "[2]; 400 μg bestatin alone into lateral ventricle, Rat 2, 4 min", "result": 5.40, "unit": "s"}, {"measurement": "Tail-flick latency", "setting": "[2]; 400 μg bestatin alone into lateral ventricle, Rat 2, 6 min", "result": 4.62, "unit": "s"}, {"measurement": "Tail-flick latency", "setting": "[2]; 400 μg bestatin alone into lateral ventricle, Rat 2, 8 min", "result": 6.51, "unit": "s"}, {"measurement": "Tail-flick latency", "setting": "[2]; 400 μg bestatin alone into lateral ventricle, Rat 2, 10 min", "result": 8.00, "unit": "s"}, {"measurement": "Tail-flick latency", "setting": "[2]; 400 μg bestatin alone into lateral ventricle, Rat 2, 12 min", "result": 8.00, "unit": "s"}, {"measurement": "Tail-flick latency", "setting": "[2]; 400 μg bestatin alone into lateral ventricle, Rat 2, 14 min", "result": 8.00, "unit": "s"}, {"measurement": "Tail-flick latency", "setting": "[2]; 400 μg bestatin alone into lateral ventricle, Rat 2, 16 min", "result": 8.00, "unit": "s"}, {"measurement": "Tail-flick latency", "setting": "[2]; 400 μg bestatin alone into lateral ventricle, Rat 2, 18 min", "result": 8.00, "unit": "s"}, {"measurement": "Tail-flick latency", "setting": "[2]; 400 μg bestatin alone into lateral ventricle, Rat 2, 20 min", "result": 8.00, "unit": "s"}, {"measurement": "Tail-flick latency", "setting": "[2]; 400 μg bestatin alone into lateral ventricle, Rat 2, 22 min", "result": 8.00, "unit": "s"}, {"measurement": "Tail-flick latency", "setting": "[2]; 400 μg bestatin alone into lateral ventricle, Rat 2, 24 min", "result": 8.00, "unit": "s"}, {"measurement": "Tail-flick latency", "setting": "[2]; 400 μg bestatin alone into lateral ventricle, Rat 2, 26 min", "result": 8.00, "unit": "s"}]}]}
